Two molecules from paper PMC7906330 (PLoS ONE, 2021) can be followed below.

For data set [1] the following is noted: pH 7.
In data set [2] the test system is trypsin. Nature of the data set: in vitro. The following applies: isolated enzyme trypsin, pH 8.5.

For `CC[C@H](C)[C@H](NC(=O)[C@H](CC(C)C)NC(=O)[C@H](Cc1ccccc1)NC(=O)[C@H](CCC(N)=O)NC(=O)[C@H](CC(C)C)NC(=O)[C@H](CCCCN)NC(=O)CNC(=O)[C@H](Cc1ccc(O)cc1)NC(=O)[C@@H]1CCCN1C(=O)[C@@H](NC(=O)[C@@H]1CCCN1C(=O)[C@H](Cc1ccc(O)cc1)NC(=O)CNC(=O)[C@H](CCCCN)NC(=O)[C@H](Cc1c[nH]c2ccccc12)NC(=O)[C@@H]1CCCN1C(=O)CN)[C@@H](C)CC)C(=O)N[C@@H](CCCCN)C(=O)N[C@@H](CCCCN)C(=O)N[C@@H](CC(C)C)C(=O)N[C@@H](CCCCN)C(=O)N[C@@H](CCC(N)=O)C(=O)N[C@@H](CC(C)C)C(=O)N[C@@H](CCCCN)C(=O)N[C@H](C(N)=O)C(C)C` [Peptide M49dN], the “α-helical structure / structural stability by CD” value in data set [1] was “no α-helical structure”. In data set [2], the half-life – broadly, how long it takes for the measured level to halve – was determined as 5 ± 0.3 min.
`CC[C@H](C)[C@H](NC(=O)[C@H](CC(C)C)NC(=O)[C@H](Cc1ccccc1)NC(=O)[C@H](CCC(N)=O)NC(=O)[C@H](CC(C)C)NC(=O)[C@H](CCCCN)NC(=O)CNC(=O)[C@H](Cc1ccc(O)cc1)NC(=O)[C@@H]1CCCN1C(=O)[C@@H](NC(=O)[C@@H]1CCCN1C(=O)[C@H](Cc1ccc(O)cc1)NC(=O)CNC(=O)[C@H](CCCCN)NC(=O)[C@H](Cc1c[nH]c2ccccc12)NC(=O)[C@@H]1CCCN1C(=O)CNC(=O)[C@H](CCC(=O)O)NC(=O)[C@H](CC(C)C)NC(=O)[C@H](C)NC(=O)[C@H](C)NC(=O)[C@H](CC(C)C)NC(=O)[C@H](CCC(=O)O)NC(=O)[C@H](C)NC(=O)[C@H](CCC(=O)O)NC(=O)[C@H](CC(C)C)NC(=O)[C@H](C)NC(=O)[C@H](C)NC(=O)[C@H](CC(C)C)NC(=O)[C@H](CCC(=O)O)NC(=O)[C@H](C)N)[C@@H](C)CC)C(=O)N[C@@H](CCCCN)C(=O)N[C@@H](CCCCN)C(=O)N[C@@H](CC(C)C)C(=O)N[C@@H](CCCCN)C(=O)N[C@@H](CCC(N)=O)C(=O)N[C@@H](CC(C)C)C(=O)N[C@@H](CCCCN)C(=O)N[C@H](C(N)=O)C(C)C` [Peptide M49dS]: in data set [1], the “α-helical structure / structural stability by CD” value was “mostly denatured at 80 °C”. Besides, the half-life in data set [2] amounted to 39 ± 2 min.
